# Source: ChEMBL document CHEMBL3271998, “Quantitative structure-activity relationships among steroids. Investigations of the use of steric parameters” (1976)
# Test system: Oryctolagus cuniculus
# Experiment: Progestational activity in immature rabbit assessed as proliferation of uterus administered intramuscularly by haematoxylin and eosin staining-based assay
# Format: functional
row,SMILES,log(activity)
1,C=C1C[C@H]2[C@@H]3C=C(SC#N)C4=CC(=O)CC[C@]4(C)[C@H]3CC[C@]2(C)[C@@]1(OC(C)=O)C(C)=O,1.08
2,C=C1C[C@H]2[C@@H]3C=C(C=O)C4=CC(=O)CC[C@]4(C)[C@H]3CC[C@]2(C)[C@@]1(OC(C)=O)C(C)=O,0
3,C=C1C[C@H]2[C@@H]3C=C(C(F)(F)F)C4=CC(=O)CC[C@]4(C)[C@H]3CC[C@]2(C)[C@@]1(OC(C)=O)C(C)=O,1.04
4,C=C1C[C@H]2[C@@H]3C=C(Br)C4=CC(=O)CC[C@]4(C)[C@H]3CC[C@]2(C)[C@@]1(OC(C)=O)C(C)=O,1.62
5,C=C1C[C@H]2[C@@H]3C=C(N=[N+]=[N-])C4=CC(=O)CC[C@]4(C)[C@H]3CC[C@]2(C)[C@@]1(OC(C)=O)C(C)=O,1.3
6,C=C1C[C@H]2[C@@H]3C=C(C#N)C4=CC(=O)CC[C@]4(C)[C@H]3CC[C@]2(C)[C@@]1(OC(C)=O)C(C)=O,0.78
7,C=C1C[C@H]2[C@@H]3C=CC4=CC(=O)CC[C@]4(C)[C@H]3CC[C@]2(C)[C@@]1(OC(C)=O)C(C)=O,0
8,C=C1C[C@H]2[C@@H]3C=C(OC(C)=O)C4=CC(=O)CC[C@]4(C)[C@H]3CC[C@]2(C)[C@@]1(OC(C)=O)C(C)=O,-0.7
9,C=C1C[C@H]2[C@@H]3C=C(Cl)C4=CC(=O)CC[C@]4(C)[C@H]3CC[C@]2(C)[C@@]1(OC(C)=O)C(C)=O,1.89
10,C=C1C[C@H]2[C@@H]3C=C(F)C4=CC(=O)CC[C@]4(C)[C@H]3CC[C@]2(C)[C@@]1(OC(C)=O)C(C)=O,1.74
11,C=C1C[C@H]2[C@@H]3C=C(C)C4=CC(=O)CC[C@]4(C)[C@H]3CC[C@]2(C)[C@@]1(OC(C)=O)C(C)=O [MELENGESTROL ACETATE],1.96
12,C=C1C[C@H]2[C@@H]3C=C(NC(C)=O)C4=CC(=O)CC[C@]4(C)[C@H]3CC[C@]2(C)[C@@]1(OC(C)=O)C(C)=O,-1
13,C=C1C[C@H]2[C@@H]3C=C(OCC)C4=CC(=O)CC[C@]4(C)[C@H]3CC[C@]2(C)[C@@]1(OC(C)=O)C(C)=O,0
14,C=C1C[C@H]2[C@@H]3C=C(OC)C4=CC(=O)CC[C@]4(C)[C@H]3CC[C@]2(C)[C@@]1(OC(C)=O)C(C)=O,1.15
